Values quoted from earlier work as cited in patent US20040210280A1, “Plaster-type chip systems for thermodynamic control of topical dermal and transdermal systems” (BIONICS PHARMA GmbH, priority 2002, published 2004).

Key:
[1] = in vivo
[2] = in vivo; remark: listed apart in the source

Row | Compound | rate of disappearance from the subcutaneous tissue [1] | concentrations of nitroglycerine in the plasma [2] | plasma concentrations of nitroglycerine [2]
1 | 125I-labelled insulin: previously injected 125I-labelled insulin | increased rate of disappearance |  | 
2 | O=[N+]([O-])OCC(CO[N+](=O)[O-])O[N+](=O)[O-] [nitroglycerine] |  | increased by two to three times | decrease
